Values joined by “and” are separate entries in the source; they are usually repeats but may differ in a detail not shown here. Equal values may be shown once. Inconclusive results are not listed.
Test system: CD8F1 mice, subcutaneous mammary adenocarcinoma, T/C%
Assay: NCI In Vivo Anticancer Drug Screen. Data for tumor model Mammary Adenocarcinoma CD8F1 (subcutaneous) in CD8F1
Conditions: higher = larger tumour
In short: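 Ratio of treated to vehicle-control outcome, based on either survival or tumor size, in mice bearing transplantable tumors given the test compound.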

[1] = endpoint: median tumor weight change, dose: 125.0 mg/kg/injection, schedule: Q01DX001 (ip), vehicle: saline with Tween-80
[2] = endpoint: median tumor weight change, dose: 250.0 mg/kg/injection, schedule: Q01DX001 (ip), vehicle: saline with Tween-80
[3] = endpoint: median tumor weight (est.), dose: 12.5 mg/kg/injection, schedule: Q07DX005 (ip), vehicle: saline with Tween-80
[4] = endpoint: median tumor weight (est.), dose: 25.0 mg/kg/injection, schedule: Q07DX005 (ip), vehicle: saline with Tween-80
[5] = endpoint: median tumor weight (est.), dose: 100.0 mg/kg/injection, schedule: Q07DX005 (ip), vehicle: saline with Tween-80
[6] = endpoint: median tumor weight (est.), dose: 200.0 mg/kg/injection, schedule: Q07DX005 (ip), vehicle: saline with Tween-80

CC1OC(=O)C(C(C)C)NC(=O)C(C(C)C)OC(=O)C(C(C)C)NC(=O)C(C)OC(=O)C(C(C)C)NC(=O)C(C(C)C)OC(=O)C(C(C)C)NC(=O)C(C)OC(=O)C(C(C)C)NC(=O)C(C(C)C)OC(=O)C(C(C)C)NC1=O (configuration not stated)
T/C (endpoint: mean tumor weight, dose: 1.0 mg/kg/injection, schedule: Q02DX007 (ip), vehicle: saline): 119 % of control
T/C (endpoint: mean tumor weight, dose: 1.0 mg/kg/injection, schedule: Q07DX006 (ip), vehicle: saline): 49 % of control
T/C (endpoint: mean tumor weight, dose: 2.0 mg/kg/injection, schedule: Q02DX007 (ip), vehicle: saline): 87 % of control
T/C (endpoint: mean tumor weight, dose: 2.0 mg/kg/injection, schedule: Q07DX006 (ip), vehicle: saline): 110 % of control
T/C (endpoint: mean tumor weight, dose: 4.0 mg/kg/injection, schedule: Q02DX007 (ip), vehicle: saline): 97 % of control
T/C (endpoint: mean tumor weight, dose: 4.0 mg/kg/injection, schedule: Q07DX006 (ip), vehicle: saline): 165 % of control
T/C (endpoint: mean tumor weight, dose: 8.0 mg/kg/injection, schedule: Q02DX007 (ip), vehicle: saline): 103 % of control
T/C (endpoint: mean tumor weight, dose: 8.0 mg/kg/injection, schedule: Q07DX006 (ip), vehicle: saline): 84 % of control
T/C (endpoint: mean tumor weight, dose: 16.0 mg/kg/injection, schedule: Q02DX007 (ip), vehicle: saline): 116 % of control
T/C (endpoint: mean tumor weight, dose: 16.0 mg/kg/injection, schedule: Q07DX006 (ip), vehicle: saline): 70 % of control
T/C (endpoint: median tumor weight (est.), dose: 1.25 mg/kg/injection, schedule: Q07DX005 (ip), vehicle: saline with Tween-80): 69 % of control
T/C (endpoint: median tumor weight (est.), dose: 2.5 mg/kg/injection, schedule: Q07DX005 (ip), vehicle: saline with Tween-80): 34 % of control
T/C (endpoint: median tumor weight (est.), dose: 5.0 mg/kg/injection, schedule: Q07DX005 (ip), vehicle: saline with Tween-80): 86 % of control
T/C (endpoint: median tumor weight (est.), dose: 10.0 mg/kg/injection, schedule: Q07DX005 (ip), vehicle: saline with Tween-80): 114 % of control
T/C (endpoint: median tumor weight (est.), dose: 20.0 mg/kg/injection, schedule: Q07DX005 (ip), vehicle: saline with Tween-80): 74 % of control

O=S(=O)(N=N/C=C1\C=CC=CN1O)c1cccs1
T/C [1]: 76 % of control
T/C [2]: 88 % of control

S=c1[nH]cc2cnccn12
T/C [3]: 92 % of control
T/C [4]: 105 % of control
T/C [5]: 85 % of control
T/C [6]: 56 % of control

O=C1CN(CN2CCOCC2)C(=O)CN1CN1CCOCC1
T/C (endpoint: median tumor weight (est.), dose: 12.5 mg/kg/injection, schedule: Q07DX005 (ip), vehicle: saline): 170 % of control
T/C (endpoint: median tumor weight (est.), dose: 50.0 mg/kg/injection, schedule: Q07DX005 (ip), vehicle: saline): 153 % of control
T/C (endpoint: median tumor weight (est.), dose: 200.0 mg/kg/injection, schedule: Q07DX005 (ip), vehicle: saline): 100 % of control

O=C(Nc1cccc2c(OC(=O)C(Cl)Cl)c(N=Nc3ccc(S(=O)(=O)Nc4nccs4)cc3)cc(N=Nc3ccc(S(=O)(=O)Nc4nccs4)cc3)c12)C(Cl)Cl (tested in a mixture with another compound)
T/C [2]: 106 % of control
T/C (endpoint: median tumor weight change, dose: 500.0 mg/kg/injection, schedule: Q01DX001 (ip), vehicle: saline with Tween-80): 124 % of control
T/C (endpoint: median tumor weight change, dose: 1000.0 mg/kg/injection, schedule: Q01DX001 (ip), vehicle: saline with Tween-80): 37 % of control

O=C(Nc1cccc(Cl)c1)ON1C(=O)C2C(C1=O)C1(Cl)C(Cl)C(Cl)C2(Cl)C1(Cl)Cl (configuration not stated)
T/C (endpoint: median tumor weight change, dose: 62.5 mg/kg/injection, schedule: Q01DX001 (ip), vehicle: saline with Tween-80): 112 % of control
T/C [1]: 112 % of control
T/C [2]: 95 % of control

CCCCC(=O)OCC(=O)[C@]1(O)Cc2c(O)c3c(c(O)c2[C@@H](OC2CC(NC(=O)C(F)(F)F)C(O)C(C)O2)C1)C(=O)c1c(OC)cccc1C3=O (some centres not stated)
T/C (endpoint: median tumor weight (est.), dose: 8.0 mg/kg/injection, schedule: Q07DX005 (ip), vehicle: distilled water + Tween-80): 77 % of control
T/C (endpoint: median tumor weight (est.), dose: 16.0 mg/kg/injection, schedule: Q07DX005 (ip), vehicle: distilled water + Tween-80): 86 % of control
T/C (endpoint: median tumor weight (est.), dose: 32.0 mg/kg/injection, schedule: Q07DX005 (ip), vehicle: distilled water + Tween-80): 58 % of control
T/C (endpoint: median tumor weight (est.), dose: 44.0 mg/kg/injection, schedule: Q07DX004 (ip), vehicle: clinical formulation): 51 % of control
T/C (endpoint: median tumor weight (est.), dose: 64.0 mg/kg/injection, schedule: Q07DX005 (ip), vehicle: distilled water + Tween-80): 18 % of control
T/C (endpoint: median tumor weight (est.), dose: 67.0 mg/kg/injection, schedule: Q07DX004 (ip), vehicle: clinical formulation): 32 % of control
T/C (endpoint: median tumor weight (est.), dose: 100.0 mg/kg/injection, schedule: Q07DX004 (ip), vehicle: clinical formulation): 10 % of control
T/C (endpoint: median tumor weight (est.), dose: 128.0 mg/kg/injection, schedule: Q07DX005 (ip), vehicle: distilled water + Tween-80): 2 % of control
T/C (endpoint: median tumor weight (est.), dose: 150.0 mg/kg/injection, schedule: Q07DX004 (ip), vehicle: clinical formulation): 3 % of control
T/C (endpoint: median tumor weight change, dose: 90.0 mg/kg/injection, schedule: Q01DX001 (ip), vehicle: clinical formulation): 45 % of control

ClC1=C(Cl)C(Cl)=C(Cl)C1=Cc1ccccc1
T/C (endpoint: median tumor weight change, dose: 31.0 mg/kg/injection, schedule: Q01DX001 (ip), vehicle: saline with Tween-80): 100 % of control
T/C (endpoint: median tumor weight change, dose: 62.0 mg/kg/injection, schedule: Q01DX001 (ip), vehicle: saline with Tween-80): 63 % of control
T/C (endpoint: median tumor weight change, dose: 150.0 mg/kg/injection, schedule: Q01DX001 (ip), vehicle: saline with Tween-80): 33 % of control
T/C (endpoint: median tumor weight change, dose: 300.0 mg/kg/injection, schedule: Q01DX001 (ip), vehicle: saline with Tween-80): 73 % of control

CC(=O)Nc1ccc(O)c(O)c1
T/C [4]: 107 % of control
T/C (endpoint: median tumor weight (est.), dose: 50.0 mg/kg/injection, schedule: Q07DX005 (ip), vehicle: saline with Tween-80): 81 % of control
T/C [5]: 79 % of control
T/C [6]: 76 % of control
T/C (endpoint: median tumor weight (est.), dose: 400.0 mg/kg/injection, schedule: Q07DX005 (ip), vehicle: saline with Tween-80): 114 % of control
T/C (endpoint: median tumor weight (est.), dose: 800.0 mg/kg/injection, schedule: Q07DX005 (ip), vehicle: saline with Tween-80): 159 % of control

COc1ccc2c(c1)CCn1c(C)c(COC(=O)NC(C)C)c(COC(=O)NC(C)C)c1-2
T/C (endpoint: median tumor weight change, dose: 15.62 mg/kg/injection, schedule: Q01DX001 (ip), vehicle: distilled water + Tween-80): 107 % of control
T/C (endpoint: median tumor weight change, dose: 31.0 mg/kg/injection, schedule: Q01DX001 (ip), vehicle: distilled water + Tween-80): 106 % of control
T/C (endpoint: median tumor weight change, dose: 31.25 mg/kg/injection, schedule: Q01DX001 (ip), vehicle: distilled water + Tween-80): 109 % of control and 114 % of control
T/C (endpoint: median tumor weight change, dose: 62.0 mg/kg/injection, schedule: Q01DX001 (ip), vehicle: distilled water + Tween-80): 58 % of control
T/C (endpoint: median tumor weight change, dose: 250.0 mg/kg/injection, schedule: Q01DX001 (ip), vehicle: distilled water + Tween-80): 26 % of control

CCOC(=O)Nc1cc2c(c(N)n1)N=C(c1ccccc1)CN2
T/C (endpoint: median tumor weight change, dose: 6.25 mg/kg/injection, schedule: Q01DX001 (ip), vehicle: saline with Tween-80): 86 % of control
T/C (endpoint: median tumor weight change, dose: 12.5 mg/kg/injection, schedule: Q01DX001 (ip), vehicle: saline with Tween-80): 35 % of control

CCC(C(=O)O)C(=O)O.[NH2-].[NH2-].[Pt+2]
T/C (endpoint: median tumor weight change, dose: 15.62 mg/kg/injection, schedule: Q01DX001 (ip), vehicle: saline): 172 % of control
T/C (endpoint: median tumor weight change, dose: 16.0 mg/kg/injection, schedule: Q01DX001 (ip), vehicle: saline): 121 % of control
T/C (endpoint: median tumor weight change, dose: 31.0 mg/kg/injection, schedule: Q01DX001 (ip), vehicle: saline): 46 % of control
T/C (endpoint: median tumor weight change, dose: 31.25 mg/kg/injection, schedule: Q01DX001 (ip), vehicle: saline): 87 % of control
T/C (endpoint: median tumor weight change, dose: 62.0 mg/kg/injection, schedule: Q01DX001 (ip), vehicle: saline): 68 % of control
T/C (endpoint: median tumor weight change, dose: 62.5 mg/kg/injection, schedule: Q01DX001 (ip), vehicle: saline): 92 % of control
T/C (endpoint: median tumor weight change, dose: 125.0 mg/kg/injection, schedule: Q01DX001 (ip), vehicle: saline): 2 % of control and 26 % of control

C1CCC2OCCOCCOC3CCCCC3OCCOCCOC2C1 (configuration not stated)
T/C (endpoint: median tumor weight (est.), dose: 3.12 mg/kg/injection, schedule: Q07DX005 (ip), vehicle: Klucel (hydroxypropylcellulose) (HPC)): 90 % of control
T/C (endpoint: median tumor weight (est.), dose: 6.25 mg/kg/injection, schedule: Q07DX005 (ip), vehicle: Klucel (hydroxypropylcellulose) (HPC)): 55 % of control
T/C (endpoint: median tumor weight (est.), dose: 25.0 mg/kg/injection, schedule: Q07DX005 (ip), vehicle: Klucel (hydroxypropylcellulose) (HPC)): 70 % of control
T/C (endpoint: median tumor weight (est.), dose: 50.0 mg/kg/injection, schedule: Q07DX005 (ip), vehicle: Klucel (hydroxypropylcellulose) (HPC)): 83 % of control

CCCCOC(=O)/C=C(\Br)C(=O)OCCCC
T/C [3]: 115 % of control
T/C [4]: 95 % of control and 119 % of control
T/C [5]: 100 % of control and 119 % of control
T/C [6]: 114 % of control

C#CC[N+]12CN3CN(CN(C3)C1)C2
T/C (endpoint: mean tumor weight, dose: 12.5 mg/kg/injection, schedule: Q07DX007 (ip), vehicle: saline): 48 % of control
T/C (endpoint: mean tumor weight, dose: 25.0 mg/kg/injection, schedule: Q07DX007 (ip), vehicle: saline): 70 % of control
T/C (endpoint: mean tumor weight, dose: 50.0 mg/kg/injection, schedule: Q07DX007 (ip), vehicle: saline): 81 % of control
T/C (endpoint: mean tumor weight, dose: 100.0 mg/kg/injection, schedule: Q07DX007 (ip), vehicle: saline): 150 % of control
T/C (endpoint: mean tumor weight, dose: 200.0 mg/kg/injection, schedule: Q07DX007 (ip), vehicle: saline): 97 % of control

Source: PubChem BioAssay AID220 (DTP/NCI, 2004)
